Results as given in patent publication US11980774B2, “Illumination devices and related methods for phototherapeutic light treatments in the presence of vitamins” (priority 2021, dated 2024).
“Also recorded” adds a separate entry of the source. Like-named read-outs stand apart in the source and are kept apart here.

How the values were obtained:
MERS-CoV = type: cell-based; settings: 1 μM riboflavin with various amounts of ascorbate in artificial saliva; 425 nm light 15 J/cm^2; FIG. 4B
human rhinovirus 1B = type: cell-based
influenza B = settings: 10 μM riboflavin; 425 nm light 30 J/cm^2; FIG. 6F
influenza A = type: cell-based; settings: for reduction in viral loads of influenza A: 425 nm light 30 J/cm^2
[1] = system: human coronavirus OC43 (HCoV-OC43); test: 425 nm light inhibition of HCoV-OC43 in the presence of vitamins in artificial saliva, virus titer (PFU/mL); type: cell-based; settings: 10 μM RFN in artificial saliva, doses as low as 7.5 J/cm^2 (up to 45 J/cm^2), FIG. 1B
Description: FIGS. 1A to 1D are provided in the context of HCoV-OC43, which is generally known as one of the viruses associated with the common cold. FIG. 1A is a chart illustrating an experimental control where light treatments were applied to HCoV-OC43 samples in the absence of any vitamins. […] A first sample included HCoV-OC43 in only its corresponding media, and the other two samples further included different artificial saliva sources (labeled as Saliva 1 and Saliva 2 in FIG. 1A).
FIG. 1B is a chart illustrating light treatments on HCoV-OC43 samples where various amounts of riboflavin (abbreviated as RFN) were diluted in a same type of artificial saliva and added to the HCoV-OC43 samples.
FIG. 1C is a chart illustrating light treatments on HCoV-OC43 samples where various amounts of ascorbate (abbreviated as AA) and 10 μM of RFN were diluted in a same type of artificial saliva and added to the HCoV-OC43 samples. […] The constant amount of RFN (10 μM) was selected based on the improvements illustrated in FIG. 1B.
FIG. 1D is a chart illustrating light treatments on HCoV-OC43 samples where various amounts of ascorbate were diluted in a same type of artificial saliva and added to the HCoV-OC43 samples in the absence of riboflavin.

With Cc1cc2nc3c(=O)[nH]c(=O)nc-3n(C[C@H](O)[C@H](O)[C@H](O)CO)c2cc1C [riboflavin] the “reductions in viral loads of MERS-CoV” value (MERS-CoV) was “greater than 99.999%”, the “reduction in viral loads of human rhinovirus 1B” value (human rhinovirus 1B; 10 μM riboflavin with various ascorbate in Saliva 2, 425 nm light 32 J/cm^2, FIG. 5B) was “some reduction” and the “influence on viral loads of human rhinovirus 1B” value (human rhinovirus 1B; 0.1, 1, 10 μM RFN in Saliva 1, 425 nm light up to 30 J/cm^2, FIG. 5A) was “little to no influence”. For the same molecule, the “reduction in viral loads of influenza B” value (influenza B) was “dramatic reduction”, the “inhibition in viral load of influenza A by riboflavin dosing alone” value (influenza A; 0 J/cm^2 (no light), 0.1-10 μM riboflavin, FIG. 6E) was “some inhibition” and the “reduction in viral loads of influenza A” value (influenza A; 1 μM riboflavin, FIG. 6E) was “some reduction”. For the same molecule, the “reduction in viral loads of influenza A” value (influenza A; 10 μM riboflavin, FIG. 6E) was “substantial reduction; also recorded: dramatic reduction”, the “change in viral loads of influenza A” value (influenza A; 10 μM riboflavin, 425 nm light 32 J/cm^2, FIG. 6D) was “dramatic decreases” and the “change in HCoV-OC43 viral load compared with the 0 μM RFN sample” value [1] was “significant decreases”.
